Molecular target: T1, USP25 (USP25-His6, Boston Biochem E-546) (Homo sapiens, UniProt Q9UHP3)
T1 construct: His6 (C); purchased Boston Biochem E-546
T1 sequence (Q9UHP3 1-1055): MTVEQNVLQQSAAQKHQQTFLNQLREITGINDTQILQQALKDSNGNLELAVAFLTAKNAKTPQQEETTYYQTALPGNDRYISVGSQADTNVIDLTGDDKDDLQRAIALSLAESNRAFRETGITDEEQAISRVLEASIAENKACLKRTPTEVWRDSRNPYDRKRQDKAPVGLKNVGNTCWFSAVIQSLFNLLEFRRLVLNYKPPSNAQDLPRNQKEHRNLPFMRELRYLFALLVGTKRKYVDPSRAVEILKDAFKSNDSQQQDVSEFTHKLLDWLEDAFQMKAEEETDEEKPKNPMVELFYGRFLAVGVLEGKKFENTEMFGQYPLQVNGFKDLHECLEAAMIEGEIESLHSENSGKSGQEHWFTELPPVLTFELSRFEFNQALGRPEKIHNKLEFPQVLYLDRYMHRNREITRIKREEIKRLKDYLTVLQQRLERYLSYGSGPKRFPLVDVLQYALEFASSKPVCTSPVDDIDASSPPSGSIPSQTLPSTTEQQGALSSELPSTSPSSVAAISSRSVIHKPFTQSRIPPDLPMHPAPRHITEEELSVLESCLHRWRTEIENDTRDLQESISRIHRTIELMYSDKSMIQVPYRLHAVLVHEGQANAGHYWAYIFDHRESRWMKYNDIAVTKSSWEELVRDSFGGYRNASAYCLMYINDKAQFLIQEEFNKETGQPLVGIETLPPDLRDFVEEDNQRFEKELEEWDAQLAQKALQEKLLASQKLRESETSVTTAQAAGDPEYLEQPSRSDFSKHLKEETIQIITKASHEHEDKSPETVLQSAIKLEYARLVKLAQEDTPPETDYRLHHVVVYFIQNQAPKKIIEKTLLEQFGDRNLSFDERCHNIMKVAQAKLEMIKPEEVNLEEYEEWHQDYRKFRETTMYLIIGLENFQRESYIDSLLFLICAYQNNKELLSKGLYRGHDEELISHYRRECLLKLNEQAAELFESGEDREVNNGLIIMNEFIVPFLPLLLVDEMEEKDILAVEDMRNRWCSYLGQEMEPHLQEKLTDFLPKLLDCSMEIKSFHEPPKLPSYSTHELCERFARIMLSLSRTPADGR
Assay: Ubiquitin-Rhodamine 110 Assay for USP25 Activity, Example A-3
Type: biochemical
Conditions: biochemical IC50 range, Ubiquitin-Rhodamine 110 assay, Example A-3; read-out: USP25 A-3
How it was run: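 USP25-His6 ([…] final as stated) preincubated 30 min with compound (10-point, 25 μM to 1.3 nM), then Ub-Rh110 at 25 nM (<<Km) added in pH 8.0 Tris buffer with BME, BGG and Triton X-100. Reaction stopped after 45 min at room temperature with 10 mM citric acid; fluorescence read at 485/535 nm.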

SMILES | IC50 [nM]
Cc1ccc2c(N)c(C(=O)N[C@H]3COc4cc(N5C[C@@H](N)[C@@](C)(CF)C5)ccc4C3)sc2n1 [Example 660, 3-amino-N-[(3R)-7-[(3S,4S)-4-amino-3-(fluoromethyl)-3-methylpyrrolidin-1-yl]-3,4-dihydro-2H-1-benzopyran-3-yl]-6-methylthieno[2,3-b]pyridine-2-carboxamide] | 1 to 50
Cc1ccc2c(N)c(C(=O)N[C@H]3COc4cc(N5C[C@@H](N)[C@](C)(CF)C5)ccc4C3)sc2n1 [Example 661, 3-amino-N-[(3R)-7-[(3R,4S)-4-amino-3-(fluoromethyl)-3-methylpyrrolidin-1-yl]-3,4-dihydro-2H-1-benzopyran-3-yl]-6-methylthieno[2,3-b]pyridine-2-carboxamide] | 50 to 200
CN[C@H]1CN(c2ccc3c(c2)OC[C@H](NC(=O)c2sc4nc(C)ccc4c2N)C3)C[C@@H]1CF [Example 662, 3-amino-N-[(3R)-7-[(3S,4R)-3-(fluoromethyl)-4-(methylamino)pyrrolidin-1-yl]-3,4-dihydro-2H-1-benzopyran-3-yl]-6-methylthieno[2,3-b]pyridine-2-carboxamide] | 1 to 50
CN[C@@H]1CN(c2ccc3c(c2)OC[C@H](NC(=O)c2sc4nc(C)ccc4c2N)C3)C[C@H]1CF [Example 663, 3-amino-N-[(3R)-7-[(3R,4S)-3-(fluoromethyl)-4-(methylamino)pyrrolidin-1-yl]-3,4-dihydro-2H-1-benzopyran-3-yl]-6-methylthieno[2,3-b]pyridine-2-carboxamide] | 50 to 200
Cc1ccc2c(N)c(C(=O)N[C@H]3COc4cc(N5C[C@@H]6CCNC[C@@H]65)cc(F)c4C3)sc2n1 [Example 665, 3-amino-N-[(3R)-7-[(1R,6S)-3,8-diazabicyclo[4.2.0]octan-8-yl]-5-fluoro-3,4-dihydro-2H-1-benzopyran-3-yl]-6-methylthieno[2,3-b]pyridine-2-carboxamide] | 50 to 200
O=C(N[C@H]1COc2cc(N3CCNCC3)ccc2C1)c1ccc(NCc2ccc(Cl)cc2Cl)nc1 [Example 697, 6-{[(2,4-dichlorophenyl)methyl]amino}-N-[(3R)-7-(piperazin-1-yl)-3,4-dihydro-2H-1-benzopyran-3-yl]pyridine-3-carboxamide] | 1 to 50
O=C(N[C@H]1COc2cc(N3CCNCC3)ccc2C1)c1ccc(NCc2cccc3cn[nH]c23)nc1 [Example 698, 6-{[(1H-indazol-7-yl)methyl]amino}-N-[(3R)-7-(piperazin-1-yl)-3,4-dihydro-2H-1-benzopyran-3-yl]pyridine-3-carboxamide] | 200 to 2000
O=C(N[C@H]1COc2cc(N3CCNCC3)ccc2C1)c1ccc(NCc2cccc(Cl)c2Cl)nc1 [Example 699, 6-{[(2,3-dichlorophenyl)methyl]amino}-N-[(3R)-7-(piperazin-1-yl)-3,4-dihydro-2H-1-benzopyran-3-yl]pyridine-3-carboxamide] | 1 to 50
